Measurements: US11286233B2, “Stilbene derivatives for the treatment of CNS and other disorders” (AMBIENT PHOTONICS, INC., priority 2017, dated 2022)

Legend:
Aβ1-42:Zn = biological target: T1, Aβ1-42:Zn (Homo sapiens, UniProt P05067); experiment: Fluorescence-based (bis-ANS) assay of Aβ1-42:Zn disaggregation; format: biochemical; conditions: Aβ1-42 15 μM, bis-ANS 15 μM, Zn 15 μM; Tris-HCl pH7.4, 26° C.; test compounds 0.227-60 μM added after plateau, read over 20 minutes; concentration reducing fluorescence by 50 percent
T1 construct: Human peptides Aβ1-42 and Amylin 8-37 were purchased; purchased China Peptide
Protocol: Human peptides Aβ1-42 and Amylin 8-37 were purchased from China Peptide and stored at −80° C. […] The device was configured to maintain 26° C., measure an excitation of 390 nm, emission of 490 nm and cutoff 475 nm with the PMT+set at Medium, 6 flashes/read at 40 second intervals with shaking 5 seconds before the first read and 3 seconds between reads. Experiments were conducted at 26° C. in a Tris-HCl buffer (50 mM, pH7.4) containing NaCl (150 mM). Aβ1-42 was solubilized in DMSO to a concentration of 1.5 mM for 5 minutes then briefly centrifuged to remove any aggregates. The soluble Aβ1-42 (15 μM) was immediately mixed ±bis-ANS (15 μM) and allowed to equilibrate for 5 minutes. Aβ aggregation was induced with the addition of ±Zn (15 μM) in H2O. […] Test compounds (0.227-60 μM in DMSO) were then added and the dose response was measured over a 20-minute period. EDTA, known to chelate Zn, was used as a positive control. Raw fluorescence was normalized to background fluorescence without Aβ and expressed as a percentage of that in control samples without Zn. All quantitative data was expressed as mean±SEM from at least 3 replicates. All statistical analysis was conducted with Prism 6 (GraphPad).

Amylin 8-37 = biological target: T2, Amylin 8-37 (Homo sapiens, UniProt P10997); experiment: Fluorescence-based (bis-ANS) assay of Amylin disaggregation; format: biochemical; conditions: Amylin 8-37 15 μM, bis-ANS 15 μM; Tris-HCl pH7.4, 26° C.; aggregation 24 hours, test compounds 0.227-60 μM, read over 24 hour period; concentration reducing fluorescence by 50 percent
T2 construct: Amylin 8-37 peptide was solubilized in DMSO; purchased China Peptide
T2 sequence (P10997 41-70): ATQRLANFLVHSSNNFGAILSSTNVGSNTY
Protocol: Human peptides Aβ1-42 and Amylin 8-37 were purchased from China Peptide and stored at −80° C. Zinc sulfate heptahydrate (ZnSO4.7H2O), BisANS (4,4′-Dianilino-1,1′-binaphthyl-5,5′-disulfonic acid dipotassium salt), Epigallocatechin-3-gallate (EGCG), 9-(Dicyanovinyl)julolidine (DCVJ) and Clioquinol (CQ) were purchased from Sigma Aldrich. Ethylenediaminetetraacetic acid (EDTA) was purchased from Alfa Aesar. 2-(dimethylamino)methyl-5,7-dichloro-8-hydroxyquinoline (AC-068), structurally similar to PBT-2 was synthesized by Warner Babcock Institute for Green Chemistry, LLC.
Amylin disaggregation was assessed using a Spectramax M5 multi-mode microplate reader (Molecular Devices) using untreated black with clear bottom 96 well plates (Costar #3631). The device was configured to maintain 26° C., measure an excitation of 390 nm, emission of 490 nm and cutoff 475 nm with the PMT+set at Medium, 6 flashes/read at 5-minute intervals with shaking 5 seconds before the first read and 3 seconds between reads.
Experiments were conducted at 26° C. in a Tris-HCl buffer (50 mM, pH7.4) containing NaCl (150 mM). Amylin 8-37 peptide was solubilized in DMSO to a concentration of 1.5 mM for 5 minutes then briefly centrifuged to remove any aggregates. The soluble amylin peptide (15 μM) was immediately mixed ±bis-ANS (15 μM) and the plate sealed to prevent evaporation. Aggregation was measured by an increase in fluorescence over 24 hours. Test compounds (0.227-60 μM in DMSO) were then added and the dose response was measured over a 24 hour period. EGCG was used as a positive control. Raw fluorescence was normalized to background fluorescence without Amylin and expressed as a percentage of that in control samples. All quantitative data was expressed as mean±SEM from at least 3 replicates. All statistical analysis was conducted with Prism 6 (GraphPad). Nonlinear regression was used to calculate the concentration at which fluorescence was reduced by 50 percent (EC50), as shown in Table 2.

T1 sequence (P05067 672-713): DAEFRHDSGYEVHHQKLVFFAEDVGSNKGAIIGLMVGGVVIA

| EC50 (Aβ1-42:Zn) [µM] | EC50 (Amylin 8-37) [µM] | Compound |
| --- | --- | --- |
| 31 | 1.26 | COc1cc(/C=C/c2ccc(N(c3ccc(C(C)(C)C)cc3)c3ccc(C(C)(C)C)cc3)cc2)c(OC)cc1C=C(C#N)C(=O)O (stereo in doubt) [PC-063, (Z)-3-[4-[(E)-2-[4-(4-tert-butyl-N-(4-tert-butylphenyl)anilino)phenyl]vinyl]-2,5-dimethoxy-phenyl]-2-cyano-prop-2-enoic Acid] |
| 0.747 | 0.024 | N#CC(=Cc1ccc(/C=C/c2ccc(N(c3ccccc3)c3ccccc3)cc2)cc1)C(=O)O (stereo in doubt) [PC-064, (Z)-2-cyano-3-[4-[(E)-2-[4-(N-phenylanilino)phenyl]vinyl]phenyl]prop-2-enoic Acid] |
|  | 1.19 | COc1cc(/C=C(\C#N)C(=O)O)c(OC)cc1/C=C/c1ccc(-n2c3ccc(C(C)(C)C)cc3c3cc(C(C)(C)C)ccc32)cc1 [PC-066, (E)-2-cyano-3-[4-[(E)-2-[4-(3,6-ditert-butylcarbazol-9-yl)phenyl]vinyl]-2,5-dimethoxy-phenyl]prop-2-enoic Acid] |
| 0.338 | 0.207 | N#C/C(=C/c1ccc(-c2ccc(N(c3ccccc3)c3ccccc3)cc2)o1)C(=O)O [PC-081, (Z)-2-cyano-3-[5-[4-(N-phenylanilino)phenyl]-2-furyl]prop-2-enoic Acid] |
| 49.7 | 3.74 | CC(C)(C)c1ccc(N(c2ccc(/C=C/c3ccc4cc(C#N)c(=O)[nH]c4c3)cc2)c2ccc(C(C)(C)C)cc2)cc1 [PC-174, 7-[(E)-2-[4-(4-tert-butyl-N-(4-tert-butylphenyl)anilino)phenyl]vinyl]-2-oxo-1H-quinoline-3-carbonitrile] |
| 0.649 |  | N#C/C(=C/c1ccc(/C=C/c2ccc(N(c3ccccc3)c3ccccc3)cc2)cc1OCC(=O)O)C(=O)O [PC-190, (Z)-3-[2-(carboxymethoxy)-4-[(E)-2-[4-(N-phenylanilino)phenyl]vinyl]phenyl]-2-cyano-prop-2-enoic Acid] |
| 1.61 |  | N#C/C(=C/c1ccc(/C=C/c2ccc(N(c3ccccc3)c3ccccc3)cc2)cc1OCCCCCCCC(=O)O)C(=O)O [PC-191] |
| 2.85 |  | N#C/C(=C/c1ccc(/C=C/c2ccc(N(c3ccccc3)c3ccccc3)cc2)cc1OCCCCCCCCCC(=O)O)C(=O)O [PC-192] |

Further lines, the compound ahead of its results:

| Compound | EC50 (Aβ1-42:Zn) [µM] | EC50 (Amylin 8-37) [µM] |
| --- | --- | --- |
| CN(C)Cc1ccc2c(Cl)cc(Cl)c(O)c2n1 [AC-068(PBT2), 2-(dimethylamino)methyl-5,7-dichloro-8-hydroxyquinoline, reference compound] | 2.21 |  |
| Oc1c(I)cc(Cl)c2cccnc12 [CQ, Clioquinol, reference compound] | 2.69 | 4.07 |
| N#CC(C#N)=Cc1cc2c3c(c1)CCCN3CCC2 [DCVJ, 9-(Dicyanovinyl)julolidine, reference compound] | 0.533 |  |
| O=C(O)CN(CCN(CC(=O)O)CC(=O)O)CC(=O)O [EDTA, Ethylenediaminetetraacetic acid, reference compound] | 46.1 |  |
| Epigallocatechin-3-gallate [EGCG, reference compound] |  | 0.857 |
